Assay results as given in patent US20080220056A1, “Treatment for liver disease” (UNIVERSITY OF SOUTHAMPTON, priority 2002, published 2008).

Key:
Type in all cases: cell-based
[1] = system: NF-kB DNA binding activity; assay: Electromobility shift assay for NF-kB DNA binding activity in rat hepatic stellate cells; settings: activated rat HSC
Protocol: Crude high salt extractable nuclear protein was prepared from activated hepatic stellate cells for analysis of NF-kB DNA binding activity essentially as described (Elsharkawy et al., supra), aliquoted and stored at −80° C. until required. Extract protein concentrations were determined using the Lowry colorimetric assay (Lowry et al., supra) with bovine serum albumin as standard. A double stranded 5′ end labeled radiolabeled oligonucleotide [sense 5′-[…]-[…] (SEQ ID NO:1)] containing a consensus NF-kB DNA binding site as underlined (Baldwin et al., Annu. Rev. Immunol., (1996) 14:649-681) was used to determine NFkB DNA binding activity in crude nuclear extracts (Elsharkawy et al., supra).
The effect of gliotoxin on NF-kB activity in hepatic stellate cells was investigated. Culture-activated (14-day) rat hepatic stellate cells were incubated in the presence or absence of 10 ng/mL TNF-α fifteen minutes after addition of:
After a further 30 minutes, and before any significant morphologic changes, cells were washed with ice-cooled PBS, nuclear extracts prepared, and NF-kB DNA binding activity assessed by gel shift analysis. […] Each lane contained […] of protein and the results were the same for at least three separate experiments.

[2] = system: human hepatic stellate cells; assay: DNA cleavage in human hepatic stellate cells (ladder, propidium iodide, TUNEL); settings: human HSC, gliotoxin
Protocol: Hepatic stellate cells cultured in 35-mm diameter dishes (Greiner) were harvested, pelleted by centrifugation and DNA fragmentation determined as outlined elsewhere (Elsharkawy et al., Hepatology (1999) 30:761-769). Propidium Iodide Flow-Activated Cell Sorting Analysis Detached cells were pelleted by centrifugation, washed in PBS, and resuspended in HYPO buffer (0.1% wt/vol) Na3Citrate and 0.1% (wt/vol) Triton™ X-100 containing […] propidium iodide and incubated for 1 hour. The cells were then analyzed by fluorescence-activated cell sorter (FACS) with a Becton Dickinson (San Jose, Calif.) FACScan instrument using a 488 nm excitation wavelength with a band pass filter set at 530 nm. Attached cells were scraped in HYPO buffer after washing cells with PBS.
Rat and human hepatic stellate cells and rat liver tissue were fixed in 4% paraformaldehyde in PBS or 10% formalin in PBS, respectively, before being stained with Giemsa. DNA fragmentation was examined by labeling of 3′-OH DNA ends by the enzymatic addition of digoxygenin-labeled deoxyuridine triphosphate (dUTP) using terminal deoxynucleotidyl transferase using a kit from Boehringer essentially as described by the manufacturer. Rat liver tissue sections were pretreated with diethyl pyrocarbonate as described previously (Stahelin et al., J. Clin. Pathol. Mol. Pathol. (1998) 51:204-208) to reduce nonspecific reaction.

[3] = system: rat hepatic stellate cells; assay: Morphology and detachment of culture-activated rat hepatic stellate cells (light microscopy)
Description: Rat hepatic stellate cells (HSCs) were isolated by pronase/collagenase perfusion and purified by isopycnic density centrifugation in Opti-prep™ (Nycomed, Amersham, England) and elutriation essentially as previously described (Bahr et al., Hepatology (1999) 29:839-848). Human hepatic stellate cells were isolated from discarded resected liver via a similar protocol (Trim et al., J. Biol. Chem., (2000) 275:6657-6663). The use of human liver tissue for scientific investigation was approved by the UK South and West Local Research Ethics Committee and was subject to patient consent.
It has been shown recently that liver myofibroblasts may contribute to liver fibrogenesis and that liver myofibroblasts may have the potential to contaminate passaged hepatic stellate cell cultures (Knittel et al., Gastronenterology, (1999) 117:1205-1221). In this study, only primary cultures of hepatic stellate cells were used, which were desmin and glial fibrillary acid protein positive (markers shown to be expressed in hepatic stellate cells, but not liver myofibroblasts—Knittel et al., supra).
Cells were treated with gliotoxin dissolved in DMSO vehicle (added to medium from a 2000-fold molar concentrated stock). Control cells received DMSO vehicle only (i.e., 0.05% vol/vol). All other additions to culture medium were made from concentrated stocks dissolved in DMSO or by direct addition to culture medium. Protein contents of wells were determined using the Lowry assay (Lowry et al., J. Biol. Chem., (1951)193: 265-275).
Culture activated rat (14 day) and human (24 day) hepatic stellate cells were treated with DMSO solvent control or 1.5 μMol/L gliotoxin. […] Hepatic stellate cells changed from a flattened fibroblastic phenotype with distinct cell-cell interfaces to a substratum detached, rounded, and blebbed morphology.

[4] = system: Fas and Fas ligand in human hepatic stellate cells; assay: Enzyme-linked immunosorbent assay for Fas and Fas ligand; settings: TIMP-1 142.5 ng/ml, 18 hours, serum deprivation, versus BSA alone
Protocol: Human hepatic stellate cells were grown to confluence and exposed to BSA with and without TIMP-1. Cells and supernatants were harvested, and protein extracts were assayed for Fas and Fas ligand by commercial enzyme-linked immunosorbent assay following the manufacturer's instructions (Calbiochem). The quantities of Fas and Fas ligand were normalized to cell number by DNA quantification using the PicoGreen technique.
Experiments were next performed to determine whether TIMP-1 regulated Fas ligand cleavage in human hepatic stellate cells. Hepatic stellate cells were incubated for 18 hours in conditions of absolute serum deprivation with BSA or BSA with TIMP-1 (142.5 ng/ml). The cells were extracted, and supernatants were collected. After normalizing for cell number (by DNA concentration using the PicoGreen technique), these extracts were analyzed by enzyme-linked immunosorbent assay for Fas and Fas ligand as described under Materials and Methods. […] Supernatant Fas and Fas ligand protein levels were undetectable in all experimental conditions (data not shown, n 3).

With `CN1C(=O)[C@]23CC4=CC=C[C@H](O)[C@H]4N2C(=O)[C@@]1(CO)SS3` [gliotoxin] the “TNF-α-inducible NF-kB DNA binding activity” value ([1]; 10 ng/mL TNF-α, same concentrations as for constitutive activity) was “inhibits TNF-α-inducible NF-kB DNA binding activity”, the “constitutive NF-kB DNA binding activity” value ([1]; gliotoxin 1.5 μmol/L, N-acetyl cysteine 5 mM, calpain inhibitor 1 50 μM, dexamethasone 0.5 μm, pentoxyfilline 3.6 mM) was “does not have a marked inhibitory effect” and the “DNA cleavage by propidium iodide or TUNEL staining” value [2] was “DNA cleavage was detected”. For the same molecule, the “cleavage of DNA to oligonucleosomal-length fragments” value [2] was “did not cleave their DNA to oligonucleosomal-length fragments”, the “detachment from culture dish substratum” value ([3]; 1.5 μMol/L gliotoxin, within four hours) was “a majority of the hepatic stellate cells had detached” and the morphologic alterations ([3]; culture activated (14 day) rat HSC, 1.5 μmol/L) was “striking morphologic alterations within one hour”.

With “TIMP-1: recombinant tissue inhibitor of matrix metalloproteases 1 (Biogenesis)” the “cellular Fas or Fas ligand protein levels” value [4] was “had no effect on cellular Fas or Fas ligand protein levels”.
